Measured values reported in ChEMBL document CHEMBL3875198, “Synthesis and biological properties of galactofuranosyl-containing fluorescent dyes” (Bioorg Med Chem Lett, 2017).
Activity calls are given as the source filed them. No cut-off for these calls is given here.

Tests used:
[1] = Cellular uptake in human macrophages infected with amastigote form of Leishmania donovani MHOM/SD/LEM3427 at 80 uM measured after 6 hrs by Hoechst-33342 staining based epifluorescence microscopy; type: ADME, cell-based; conditions: macrophage
[2] = Drug uptake in human macrophage cytoplasm infected with amastigote form of Leishmania donovani MHOM/SD/LEM3427 at 80 uM measured after 6 to 18 hrs by Hoechst-33342 staining based epifluorescence microscopy; type: ADME
[3] = test system: Leishmania donovani; assay: Antileishmanial activity against amastigote form of Leishmania donovani MHOM/SD/LEM3427 infected in human macrophages assessed as reduction in macrophage infection at 80 uM measured after 48 hrs; type: functional
[4] = test system: Leishmania donovani; assay: Antileishmanial activity against amastigote form of Leishmania donovani MHOM/SD/LEM3427 infected in human macrophages assessed as reduction in amastigote multiplication at 80 uM measured after 48 hrs; type: functional
[5] = test system: Leishmania donovani; assay: Antileishmanial activity against amastigote form of Leishmania donovani MHOM/SD/LEM3427 infected in human macrophages assessed as phenotypic surface alterations by MGG-staining based analysis; type: functional

Row | Compound | Drug uptake [1] | Drug uptake [2] | Activity [3] | Activity [4] | Activity [5]
1 | CC/N=c1/cc2oc3cc(NCC)c(C)cc3c(-c3ccccc3C(=O)NCCCCCCO[C@@H]3O[C@@H]([C@H](O)CO)[C@H](O)[C@H]3O)c-2cc1C.Cl | Active | Active | Active | Active | 
2 | CC/N=c1\cc2oc3cc(NCC)c(C)cc3c(-c3ccccc3C(=O)OCC)c-2cc1C.Cl [RHODAMINE 6G HYDROCHLORIDE] | Active | Active |  |  | Active
3 | O=C(O)c1cc(NC(=S)NCCCCCCO[C@@H]2O[C@@H]([C@H](O)CO)[C@H](O)[C@H]2O)ccc1-c1c2ccc(=O)cc-2oc2cc(O)ccc12 | Active | Active |  |  | 
